Data: patent US20240252494A1, “Mechanotransduction Disruption Mediation in Skin Grafting Methods and Compositions for Use in Practicing the Same” (The Board of Trustees of the Leland Stanford Junior …, priority 2021, published 2024)

Columns and labels:
[1] = tested on: tumor growth; conditions: in vivo; cited from earlier work
[2] = tested on: full-thickness excisional wounds with STSG; experiment: Cutometer viscoelastic analysis of STSG biomechanical properties; format: in vivo, red Duroc pigs; conditions: vs untreated STSG; P<0.05
Text: (§1) STSG were not disturbed during the first 3 days.
(§2) After three weeks, dressings (and hydrogels) were changed twice per week until month 3. STSG were no longer bolster dressed and instead a conventional dressing was used (Telfa+Tegaderm). Each STSG within the animal was biopsied for histological and molecular evaluation at the end of the study.
A cutometer (Dual MPA 580, Courage+Khazaka Electronic) was used to evaluate the firmness and elasticity of the healing tissue and unwounded skin. Cutometer assessment is one of the most common instruments to measure viscoelasticity in human patients (111, 112), measuring the vertical deformation of the skin surface by applying negative pressure (suction) through a small circular diameter (8 mm probe). Deformation (suction) for two seconds followed by two seconds of relaxation (no suction) was applied three times and averaged. The firmness 0 was measured as the amplitude at the end of the suction phase (RO metric) and normalized against the values of STSG treated with blank hydrogels (111). Increased deformation to a consistent negative pressure corresponds to less firm tissue, more similar to unwounded skin.

[3] = tested on: full-thickness excisional wounds with STSG; experiment: Histological analysis of collagen architecture of porcine STSG; format: in vivo, red Duroc pigs
Method: as §1
No patient identifying information was retained with the samples.
Masson's Trichrome staining and Picrosirius Red staining were performed, and images were captured with a Leica DM5000 B upright microscope. For Picrosirius Red, polarized light microscopy was used to obtain 40× magnification images and analysis of fiber alignment was performed using CurveAlign (109) and MatFiber (98, 110). The strength of alignment ranges from a value of 0 (completely random fiber alignment) to 1 (completely aligned fibers). Quantification of individual collagen fiber parameters (fiber length, width) was performed using CT-FIRE (http://loci.wisc.edu/software/ctfire) (109, 113).

[4] = tested on: porcine STSG cells; experiment: scRNA-seq of porcine STSG tissue; format: in vivo, red Duroc pigs; conditions: for number of DEGs between untreated STSG and STSG treated with FAKI: POD7
Method: We obtained a 1 cm^2 tissue from the center of our STSG groups or unwounded skin. The tissue was thoroughly cut into small 1 mm^2 pieces using a scalpel before then being carefully minced with fine scissors. To maximize cell capture for scRNA-seq, diligent care was made to cut the tissue into a fine tissue paste consistency. An increased enzyme concentration and volume of 30 ml of 1 mg/mL Liberase (Sigma-Aldrich 5401127001) in PBS were used to fully break down the dense, fibrotic porcine extracellular matrix. The cell-digest suspensions were constantly agitated (rotated) for a total of 2 hours at 37° C. Tissue solution was subjected to maximum speed vortex mixer (VWR) for 30 seconds before being placed in the oven, after 1 hour, and again after total of 2 hours to physically disrupt any tissue that had clumped together and maximize the tissue surface area exposed to enzymatic digestion at all times.
The tissue solution was filtered through a 100 μm Nylon cell filter (Fisher-Scientific 08-771-19) into a new conical tube, and 20 mL of 10% FBS DMEM was added through the filter to quench the enzymatic reaction and release any cells trapped within the filter, maximizing downstream cell yield. Solutions were spun at 350×g for 5 min at 4° C. in a centrifuge, supernatant was aspirated, and cells were then resuspended in 20 mL 10% FBS DMEM and passed through a 70 μm Nylon cell filter. A 20 mL solution of 10% FBS in PBS (FACS Buffer) was added through the filter to wash the remaining cells.
This cellular suspension was then resuspended in a concentrated solution and submitted for droplet-based microfluidic single cell RNA sequencing (scRNA-seq) at the Stanford Functional Genomics Facility (SFGF) using the 10× Chromium Single Cell platform (Single Cell 3′ v3, 10× Genomics, USA). The cell suspension, reverse transcription master mix, and partitioning oil was loaded onto a single cell chip, processed on the Chromium Controller, and reverse transcription was performed at 53° C. for 45 min. cDNA was amplified for 12 cycles total (BioRad C1000 Touch thermocycler) with cDNA size selected using SpriSelect beads (Beckman Coulter, USA) and a 3:5 ratio of SpriSelect reagent volume to sample volume. cDNA was analyzed on an Agilent Bioanalyzer High Sensitivity DNA chip for qualitative control, fragmented for 5 min at 32° C., followed by end repair and A-tailing at 65° C. for 30 min, and then double-sided size selected with SpriSelect. Sequencing adaptors were ligated to the cDNA at 20° C. for 15 min. cDNA was amplified using a sample-specific index oligo as primer, followed by another round of double-sided size selection. Final libraries were analyzed on an Agilent Bioanalyzer High Sensitivity DNA chip for qualitative control purposes. cDNA libraries were sequenced on a HiSeq 4000 Illumina platform aiming for 50,000 reads per cell.
Base calls were converted to reads using the Cell Ranger (10× Genomics; version 3.1) implementation of mkfastq and then aligned against our custom pig transcriptome using Cell Ranger's count function with SC3Pv3 chemistry and 5,000 expected cells per sample (51). Cell barcodes were filtered for high quality based on an optimized threshold of having at least 200 unique transcripts profiled, less than 10,000 total transcripts, and less than 10% of their transcriptome of mitochondrial origin (114).
Unique molecular identifiers (UMIs) from each cell barcode were retained for all downstream analysis. Raw UMI counts were normalized with a scale factor of 10,000 UMIs per cell and subsequently natural log transformed with a pseudocount of 1 using the R package Seurat (version 3.1.1) (52). Highly variable genes were identified, and cells were scaled by regression to the fraction of mitochondrial transcripts. Aggregated data was then evaluated using uniform manifold approximation and projection (UMAP) analysis over the first 15 principal components (115). […]

[5] = tested on: porcine fibroblasts; experiment: 3D organotypic scar culture system (strained collagen scaffolds), scRNA-seq; format: cell-based; conditions: 10% strain, 10 µM FAKI
Text: (§3) To determine whether the increased mechanical strain experienced by cells within the healing STSG would trigger the same fibroblast transcriptional states observed in vivo, we used our previously published three-dimensional (3D) organotypic scar culture system that permits the precise manipulation of strain (and therefore stress) without any other potential confounding factors (27, 98). Fibroblasts were first isolated from human skin and seeded within 3D collagen scaffolds (FIG. 8A). These scaffolds were then subjected to either 10% strain (Strain, S), 10% strain with FAK inhibition (Strain+FAKI, S+FAKI), or 0% strain (No Strain, NS) as a control (FIG. 8, A to C). Because it seemed likely that healing tissue would not be subjected to maximal strains (due to pain), we used a strain profile of 10% to represent the average wound strain environment.
We isolated and cultured dermal fibroblasts from both healthy human and porcine skin samples. Fibroblasts were isolated by mechanical and enzymatic digestion and cultured under standard conditions until passage 3. […]
We used a suture to paint nine Titanium(IV) oxide dots (Sigma-Aldrich 248576) on the surface of the central region of the gel to track and quantify the imposed strains. […]

[6] = tested on: porcine STSG tissue
Text: We developed a novel porcine STSG model using surgical techniques commonly applied for the clinical treatment of burn wounds and other soft-tissue defects. First, we created full-thickness excisional wounds measuring 25 cm^2 on the backs of adult red Duroc pigs, leaving the underlying muscle fascia intact. In the same surgery, we harvested thin STSG (0.01 in) from the same pig using a clinical-grade electric dermatome (Zimmer Biomet). First, the unwounded skin of the donor site was lubricated (Surgilube) and the dermatome was passed over the skin at a controlled rate. The resultant skin was placed on a Skin Graft Carrier (Dermacarrier II, Zimmer 00770800010) and slowly fed through a Skin Graft Mesher (Zimmer 7701) to create a mesh graft of 1:1.5 ratio (41). The grafts were carefully spread out on the graft carrier and placed onto the exposed muscle fascia of the wound beds. Skin staples (Covidien 8886803712) were used to secure the graft to the wound bed (about 5 staples per edge). The grafts were covered with three layers of petrolatum gauze (Xeroform, Covidien SH84-433605) to prevent them from drying out and also to prevent bacterial infection. Bolster dressings were prepared by cutting 5.5 cm×5.5 cm squares from VAC Granufoam (Small Dressing Kit, Acelity M8275065) and heavily secured on top of the gauze and STSG with additional skin staples. […]

[7] = tested on: full-thickness excisional wounds with STSG; experiment: Scar contracture analysis in porcine STSG model; format: in vivo, red Duroc pigs
Text: as §1, §2
STSG were monitored photographically at each dressing change. Each image was taken with a ruler or standard measurement device to standardize measurements. Scar areas were traced over time in ImageJ. Contracture was measured as change in scar area, normalized to the area of the STSG during the first dressing change. Two independent evaluators measured scar area, and the resultant scar area was the average of the two measurements.

[8] = tested on: human fibroblasts; experiment: 3D organotypic scar culture system (strained collagen scaffolds), immunofluorescent staining; format: cell-based; conditions: 10% strain, 48 hours, 10 µM FAKI, vs strained fibroblasts
Text: as §3
We isolated and cultured dermal fibroblasts from both healthy human and porcine skin samples. Fibroblasts were isolated by mechanical and enzymatic digestion and cultured under standard conditions until passage 3. Following our previously published protocols (98), we used the primary fibroblasts to create fibroblast-populated collagen hydrogels with a concentration of 200 k cells/mL and 2 mg/mL collagen (PureCol, Advanced Biomatrix 5005). In brief, collagen scaffolds were formulated in a cruciform shape with sponges in the arms and cultured in petri dishes on top of a layer (˜0.5 cm) of cured polydimethylsiloxane (PDMS; Sylgard 184 Silicone Elastomer Kit; Dow Corning). Pins were pushed through the sponges in the hydrogel cruciform arms to constrain the scaffolds during an initial pre-culture period (24h). Then, we subjected the scaffolds to either 0% strain (no strain) or 10% equibiaxial strain (either with or without FAKI) for an additional 48 hours. Strained but untreated cells were given 10 μL DMSO in 20 mL culture media, while strained and treated cells were administered 10 μL of 20 mM FAKI in DMSO in 20 mL culture media to achieve a final concentration of 10 µM FAKI.
We used a suture to paint nine Titanium(IV) oxide dots (Sigma-Aldrich 248576) on the surface of the central region of the gel to track and quantify the imposed strains. We used a digital camera to image the markers before and after strain. Strain was imposed by removing the pins, manually extending the hydrogel cruciform arms, and pushing the pins back through the arms to hold the scaffold in a new, extended position. Photographs of the marker positions were used to compute a single homogenous deformation gradient tensor F that provided the least-squares best fit mapping of the 9 marker positions from the undeformed to deformed positions by solving the overdetermined matrix equation: […]

[9] = POD90, regenerative lineages 1 and 2

For `CN(c1ncccc1CNc1nc(Nc2ccc3c(c2)CC(=O)N3)ncc1C(F)(F)F)S(C)(=O)=O` [FAKI], the tumor growth [1] is given as “blocks tumor growth”, the “STSG firmness and stiffness (cutometer deformation)” value [2] is given as “less firm and less stiff” and the “collagen fiber length and alignment” value ([3]; deep dermis, POD90, P<0.05) is given as “shorter and more randomly aligned”. The overall collagen deposition ([3]; superficial and deep dermis, by decreasing fiber widths and architectural complexity) was “decreased”, the “number of DEGs between untreated STSG and STSG treated with FAKI” value (“number … with FAKI” below) ([4]; all other cell types) was under 75 and the “number … with FAKI” value ([4]; fibroblasts) was “about 50”. The “number … with FAKI” value ([4]; monocyte-lineage cells (macrophages, monocytes, dendritic cells)) was over 170, the “number … with FAKI” value ([4]; neutrophils and lymphoid cells, each) was “around 100” and the “adipogenic gene sets and stem cell markers (CD34 and NT5E) in fibroblasts” value ([4]; POD90, lineages 1 and 2) was “promoted”. The “fibroblast transcriptional state (CellRank lineages)” value ([4]; POD90, primarily lineages 1 and 2) was “transcriptional similarity to those from unwounded skin”, the “APOE, CLEC3B, CD34, and PPARG unspliced pre-mRNA in fibroblasts” value [4, 9] was “upregulation” and the “pro-fibrotic genes in fibroblasts” value [4, 9] was “abrogation”. For the same compound, the “APOE, EGR1 and PRDX1 expression” value [5] was “upregulation”, the “pro-fibrotic responses (CXCL14, THBS2, COL1A1 expression)” value [5] was “abrogated” and the “secretion of IP-10 (CXCL10)” value ([6]; POD 7, P<0.05) was “upregulated”. For the same compound, the “number of infiltrating inflammatory cells (F4/80-positive macrophages)” value ([6]; early (POD 7, P<0.001) and late (POD 90, P<0.05) time points) was “significantly decreased”, the “scar contracture at early time points” value ([7]; POD7, P=0.09, POD21, P<0.05) was “blocked scar contracture” and the scar contracture ([7]; POD28, change in scar area normalized to STSG area at first dressing change, untreated and blank hydrogel-treated STSGs over 70%) was 30%. For the same compound, the CD34 expression ([8]; P<0.0001) was “significantly increasing”, the APOE expression ([8]; P<0.01) was “significantly increasing” and the aSMA expression ([8]; P<0.01) was “significantly decreased”. For the same compound, the CXCL14 expression ([8]; P<0.05) was “significantly decreased” and the THBS4 expression ([8]; P<0.05) was “significantly decreased”.
